Converted amounts (≈) assume the structure as drawn.
Key:
Format in all cases: cell-based
Staph. aureus = test: MIC by serial dilution on iso-sensitest agar, Staph. aureus; conditions: Staphylococcus aureus, 37° C., about 20 hours
Experimental: (§1) The minimum inhibitory concentrations (MIC) of the compounds according to the invention were determined by serial dilution methods on iso-sensitest agar (Oxoid). For each test substance, a number of agar plates were prepared which, each with a doubled dilution, contained decreasing concentrations of the active compound. The agar plates were inoculated using a multipoint inoculator (Denley). For inoculation, overnight cultures of the pathogens were used which had previously been diluted such that each inoculation point contained about 10^4 colony-forming particles. The inoculated agar plates were incubated at 37° C., and the bacterial growth was read off after about 20 hours. The MIC value (μg/ml) indicates the lowest active compound concentration at which no growth could be detected with the naked eye.

Staph. hyicus = test: MIC by serial dilution on iso-sensitest agar, Staph. hyicus; conditions: Staphylococcus hyicus, 20 h, 37° C., about 20 hours
Experimental: as §1

Staph. interm. = test: MIC by serial dilution on iso-sensitest agar, Staph. interm.; conditions: strain ATCC 29663; 37° C., about 20 hours
Experimental: as §1

[1] = strain 9621, actual clinical isolate
[2] = strain 9622, actual clinical isolate
[3] = strain 9637, actual clinical isolate
[4] = strain 9641, actual clinical isolate

CCC(C)C(=O)C(=O)NCCc1c[nH]c2ccccc12 (stereo not shown) [A, reference compound]
MIC (Staph. aureus; ATCC6538, strain ATCC 6538): 0.25 µg/mL (≈ 0.918 µM) | MIC (Staph. aureus; ATCC25923, strain ATCC 25923): 0.125 µg/mL (≈ 0.459 µM) | MIC (Staph. aureus; ATCC29213, strain ATCC 29213): 0.125 µg/mL (≈ 0.459 µM) | MIC (Staph. hyicus; [1]): 1 µg/mL (≈ 3.67 µM) | MIC (Staph. hyicus; [2]): 0.5 µg/mL (≈ 1.84 µM) | MIC (Staph. hyicus; [3]): 0.25 µg/mL (≈ 0.918 µM) | MIC (Staph. hyicus; [4]): 0.25 µg/mL (≈ 0.918 µM) | MIC (Staph. interm.): 8 µg/mL (≈ 29.4 µM)

CC(C)CC(=O)C(=O)NCCc1c[nH]c2ccccc12 [B, reference compound]
MIC (Staph. aureus; ATCC6538, strain ATCC 6538): 0.125 µg/mL (≈ 0.459 µM) | MIC (Staph. aureus; ATCC25923, strain ATCC 25923): 0.25 µg/mL (≈ 0.918 µM) | MIC (Staph. aureus; ATCC29213, strain ATCC 29213): 0.25 µg/mL (≈ 0.918 µM) | MIC (Staph. hyicus; [1]): 0.25 µg/mL (≈ 0.918 µM) | MIC (Staph. hyicus; [2]): 0.03 µg/mL (≈ 0.11 µM) | MIC (Staph. hyicus; [3]): 0.25 µg/mL (≈ 0.918 µM) | MIC (Staph. hyicus; [4]): 0.25 µg/mL (≈ 0.918 µM) | MIC (Staph. interm.): 2 µg/mL (≈ 7.34 µM)

CCC(C)C(=O)C(=O)NCCc1cn(C)c2ccccc12 (stereo not shown) [Compound 1]
MIC (Staph. aureus; ATCC6538, strain ATCC 6538): 0.015 µg/mL (≈ 0.0524 µM) | MIC (Staph. aureus; ATCC25923, strain ATCC 25923): 0.015 µg/mL (≈ 0.0524 µM) | MIC (Staph. aureus; ATCC29213, strain ATCC 29213): 0.015 µg/mL (≈ 0.0524 µM) | MIC (Staph. hyicus; [1]): 0.06 µg/mL (≈ 0.21 µM) | MIC (Staph. hyicus; [2]): 0.06 µg/mL (≈ 0.21 µM) | MIC (Staph. hyicus; [3]): 0.015 µg/mL (≈ 0.0524 µM) | MIC (Staph. hyicus; [4]): 0.015 µg/mL (≈ 0.0524 µM) | MIC (Staph. interm.): 2 µg/mL (≈ 6.98 µM)

CC(C)CC(=O)C(=O)NCCc1cn(C)c2ccccc12 [Compound 2]
MIC (Staph. aureus; ATCC6538, strain ATCC 6538): 0.03 µg/mL (≈ 0.105 µM) | MIC (Staph. aureus; ATCC25923, strain ATCC 25923): 0.03 µg/mL (≈ 0.105 µM) | MIC (Staph. aureus; ATCC29213, strain ATCC 29213): 0.03 µg/mL (≈ 0.105 µM) | MIC (Staph. hyicus; [1]): 0.03 µg/mL (≈ 0.105 µM) | MIC (Staph. hyicus; [2]): 0.03 µg/mL (≈ 0.105 µM) | MIC (Staph. hyicus; [3]): 0.03 µg/mL (≈ 0.105 µM) | MIC (Staph. hyicus; [4]): 0.03 µg/mL (≈ 0.105 µM) | MIC (Staph. interm.): 2 µg/mL (≈ 6.98 µM)

CCC(C)C(=O)C(=O)NCCc1cn(C(C)C)c2ccccc12 (stereo not shown) [Compound 3]
MIC (Staph. aureus; ATCC6538, strain ATCC 6538): 0.03 µg/mL (≈ 0.0954 µM) | MIC (Staph. aureus; ATCC25923, strain ATCC 25923): 0.03 µg/mL (≈ 0.0954 µM) | MIC (Staph. aureus; ATCC29213, strain ATCC 29213): 0.03 µg/mL (≈ 0.0954 µM) | MIC (Staph. hyicus; [1]): 1 µg/mL (≈ 3.18 µM) | MIC (Staph. hyicus; [2]): 0.5 µg/mL (≈ 1.59 µM) | MIC (Staph. hyicus; [3]): 0.03 µg/mL (≈ 0.0954 µM) | MIC (Staph. hyicus; [4]): 0.03 µg/mL (≈ 0.0954 µM) | MIC (Staph. interm.): 4 µg/mL (≈ 12.7 µM)

CC(C)CC(=O)C(=O)NCCc1cn(C(C)C)c2ccccc12 [Compound 4]
MIC (Staph. aureus; ATCC6538, strain ATCC 6538): 0.125 µg/mL (≈ 0.398 µM) | MIC (Staph. aureus; ATCC25923, strain ATCC 25923): 0.06 µg/mL (≈ 0.191 µM) | MIC (Staph. aureus; ATCC29213, strain ATCC 29213): 0.25 µg/mL (≈ 0.795 µM) | MIC (Staph. hyicus; [1]): 0.06 µg/mL (≈ 0.191 µM) | MIC (Staph. hyicus; [2]): 0.25 µg/mL (≈ 0.795 µM) | MIC (Staph. hyicus; [3]): 0.125 µg/mL (≈ 0.398 µM) | MIC (Staph. hyicus; [4]): 0.125 µg/mL (≈ 0.398 µM) | MIC (Staph. interm.): 2 µg/mL (≈ 6.36 µM)

CC(C)CC(=O)C(=O)NCCc1cn(-c2ccccc2)c2ccccc12 [Compound 5]
MIC (Staph. aureus; ATCC6538, strain ATCC 6538): 0.03 µg/mL (≈ 0.0861 µM) | MIC (Staph. aureus; ATCC25923, strain ATCC 25923): 0.06 µg/mL (≈ 0.172 µM) | MIC (Staph. aureus; ATCC29213, strain ATCC 29213): 0.06 µg/mL (≈ 0.172 µM) | MIC (Staph. hyicus; [1]): 0.06 µg/mL (≈ 0.172 µM) | MIC (Staph. hyicus; [2]): 0.015 µg/mL (≈ 0.043 µM) | MIC (Staph. hyicus; [3]): 0.06 µg/mL (≈ 0.172 µM) | MIC (Staph. hyicus; [4]): 0.06 µg/mL (≈ 0.172 µM) | MIC (Staph. interm.): 1 µg/mL (≈ 2.87 µM)

CCC(C)C(=O)C(=O)NCCc1cn(Cc2ccccc2)c2ccccc12 (stereo not shown) [Compound 6]
MIC (Staph. aureus; ATCC6538, strain ATCC 6538): 0.125 µg/mL (≈ 0.345 µM) | MIC (Staph. aureus; ATCC25923, strain ATCC 25923): 0.125 µg/mL (≈ 0.345 µM) | MIC (Staph. aureus; ATCC29213, strain ATCC 29213): 0.125 µg/mL (≈ 0.345 µM) | MIC (Staph. hyicus; [1]): 1 µg/mL (≈ 2.76 µM) | MIC (Staph. hyicus; [2]): 1 µg/mL (≈ 2.76 µM) | MIC (Staph. hyicus; [3]): 0.125 µg/mL (≈ 0.345 µM) | MIC (Staph. hyicus; [4]): 0.125 µg/mL (≈ 0.345 µM) | MIC (Staph. interm.): 8 µg/mL (≈ 22.1 µM)

Reference: patent US6255335A, “Substituted 2-oxo-alkanoic acid-[2-(indol-3-yl)-ethyl] amides” (Bayer Aktiengesellschaft, priority 1998, dated 2001)
